Experimental data reported in patent US20210128566A1, “NOVEL FUNCTIONALIZED PURINE-2,6-DIONES AND THEIR USE IN MEDICINE” (THOMAS HELLEDAYS STIFTELSE FÖR MEDICINSK FORSKNING, priority 2017, published 2021).
pIC50: −log10 of the molar value.

Biological target: recombinant human NUDT5 (Homo sapiens, UniProt Q9UKK9)
Experiment: NUDT5 inhibitor activity by malachite green reporter assay
Format: biochemical
Settings: Table 3; 6 nM NUDT5, 50 μM ADP-Ribose, 15 minutes at room temperature
Method: NUDT5 inhibitors were evaluated using a coupled enzymatic assay with detection of inorganic phosphate (Pi) using the malachite green assay. Following enzymatic hydrolysis of ADP-Ribose (Sigma-Aldrich A0572) by NUDT5, to yield AMP and ribose-5-phosphate, the latter product is continuously processed by a significant excess of alkaline phosphatase (Sigma-Aldrich, P0114). Formation of Pi is quantified based on the green complex (that absorbs at 630 nm) formed between malachite green and molybdate according to published procedure (Baykov, A. A., Evtushenko, O. A. and Avaeva, S. M., Anal Biochem, 171, 266-270 (1988)). Assay buffer consisted of 10 mM Tris-acetate at pH 8.0, 40 mM sodium chloride, 10 mM magnesium acetate, 0.005% Tween-20 and 1 mM dithiothreitol (DTT). The final conditions consisted of 6 nM recombinant human NUDT5, 50 μM ADP-Ribose and 10 U/ml of calf intestine alkaline phosphatase. The plates with compounds, enzymes and substrate were incubated at room temperature for 15 minutes, after which the reaction was terminated and the signal developed by the addition of the malachite green reagent using a MultiDrop (Thermo Scientific). Following vigorous shaking on plate shakers for a minimum of eight minutes the absorbance was read in a microplate reader (HidexSense) using a filter at 630 nm and a read time of 0.1 s per well. Inhibitors were used in dilutions from 100 μM to 1.7 nM in 3-fold dilution steps. Experiments were run in duplicate and confirmed in two independent experiments. IC50 values were determined by curve fitting using ExcelFit.

SMILES | pIC50
CNc1nc2c(c(=O)n(C)c(=O)n2C)n1Cc1nnc(-c2ccc(Cl)c(Cl)c2)o1 [Example 5, 7-{[5-(3,4-dichlorophenyl)-1,3,4-oxadiazo-2-yl]methyl}-1,3-dimethyl-8-(methylamino)-2,3,6,7-tetrahydro-1H-purine-2,6-dione] | 7.90
Cn1c(=O)c2c(nc(NC3CC3)n2Cc2nnc(-c3ccc(Cl)c(Cl)c3)o2)n(C)c1=O [Example 42, 8-(cyclopropylamino)-7-{[5-(3,4-dichlorophenyl)-1,3,4-oxadiazol-2-yl]methyl}-1,3-dimethyl-2,3,6,7-tetrahydro-1H-purine-2,6-dione] | 7.58
Cn1c(=O)c2c(nc(N3CCN(CCO)CC3)n2Cc2nnc(-c3ccc(Cl)c(Cl)c3)o2)n(C)c1=O [Example 31, 7-{[5-(3,4-dichlorophenyl)-1,3,4-oxadiazol-2-yl]methyl}-8-[4-(2-hydroxyethyl)piperazin-1-yl]-1,3-dimethyl-2,3,6,7-tetrahydro-1H-purine-2,6-dione] | 6.98
Cn1c(=O)c2c(nc(N3CCC(CN)CC3)n2Cc2nnc(-c3ccc(Cl)c(Cl)c3)o2)n(C)c1=O [Example 38, 8-[4-(aminomethyl)piperidin-1-yl]-7-{[5-(3,4-dichlorophenyl)-1,3,4-oxadiazol-2-yl)methyl}-1,3-dimethyl-2,3,6,7-tetrahydro-1H-purine-2,6-dione] | 7.73
Cn1c(=O)c2c(nc(N3CCC(O)CC3)n2Cc2nnc(-c3ccc(Cl)c(Cl)c3)o2)n(C)c1=O [Example 37, 7-{[5-(3,4-dichlorophenyl)-1,3,4-oxadiazol-2-yl]methyl}-8-(4-hydroxypiperidin-1-yl)-1,3-dimethyl-2,3,6,7-tetrahydro-1H-purine-2,6-dione] | 7.70
Cc1cccc(-c2nnc(Cn3c(N4CCN(C5CCCCC5)CC4)nc4c3c(=O)n(C)c(=O)n4C)o2)c1 [Example 59, 8-(4-cyclohexylpiperazin-1-yl)-1,3-dimethyl-7-{[5-(3-methylphenyl)-1,3,4-oxadiazol-2-yl]methyl}-2,3,6,7-tetrahydro-1H-purine-2,6-dione] | < 6.00
CC(=O)N1CCN(c2nc3c(c(=O)n(C)c(=O)n3C)n2Cc2nnc(-c3ccc(Cl)c(Cl)c3)o2)CC1 [Example 32, 8-(4-acetylpiperazin-1-yl)-7-{[5-(3,4-dichlorophenyl)-1,3,4-oxadiazol-2-yl]methyl}-1,3-dimethyl-2,3,6,7-tetrahydro-1H-purine-2,6-dione] | 7.12
Cn1c(=O)c2c(nc(N3CCCC(F)C3)n2Cc2nnc(-c3ccc(Cl)c(Cl)c3)o2)n(C)c1=O (stereo not drawn) [Example 41, 7-{[5-(3,4-dichlorophenyl)-1,3,4-oxadiazol-2-yl]methyl}-8-(3-fluoropiperidin-1-yl)-1,3-dimethyl-2,3,6,7-tetrahydro-1H-purine-2,6-dione] | 7.62
Cn1c(=O)c2c(nc(N3CCC4(CC3)NC(=O)NC4=O)n2Cc2nnc(-c3ccc(Cl)c(Cl)c3)o2)n(C)c1=O [Example 22, 8-(7-{[5-(3,4-dichlorophenyl)-1,3,4-oxadiazol-2-yl]methyl}-1,3-dimethyl-2,6-dioxo-2,3,6,7-tetrahydro-1H-purin-8-yl)-1,3,8-triazaspiro[4.5]decane-2,4-dione] | 7.45
Cc1cccc(-c2nnc(Cn3c(N(C)C)nc4c3c(=O)n(C)c(=O)n4C)o2)c1 [Example 48, 8-(dimethylamino)-1,3-dimethyl-7-{[5-(3-methylphenyl)-1,3,4-oxadiazol-2-yl]methyl}-2,3,6,7-tetrahydro-1H-purine-2,6-dione] | 7.16
C[C@@H]1CN(c2nc3c(c(=O)n(C)c(=O)n3C)n2Cc2nnc(-c3ccc(Cl)c(Cl)c3)o2)CCN1 [Example 47, 7-{[5-(3,4-dichlorophenyl)-1,3,4-oxadiazol-2-yl]methyl}-1,3-dimethyl-8-[(3R)-3-methylpiperazin-1-yl]-2,3,6,7-tetrahydro-1H-purine-2,6-dione] | 7.92

Same assay, conditions: Table 4; 6 nM NUDT5, 50 μM ADP-Ribose, 15 minutes at room temperature

SMILES | pIC50
Cn1c(=O)c2c(nc(N3CCNCC3)n2Cc2nnc(-c3cccnc3)o2)n(C)c1=O [Example 113, 1,3-dimethyl-8-(piperazin-1-yl)-7-{[5-(pyridin-3-yl)-1,3,4-oxadiazol-2-yl]methyl}-2,3,6,7-tetrahydro-1H-purine-2,6-dione] | 5.77
Cn1c(=O)c2c(nc(N3CCNCC3)n2Cc2nnc(-c3cccc(F)c3)o2)n(C)c1=O [Example 110, 7-{[5-(3-fluorophenyl)-1,3,4-oxadiazol-2-yl]methyl}-1,3-dimethyl-8-(piperazin-1-yl)-2,3,6,7-tetrahydro-1H-purine-2,6-dione] | 6.89
Cn1c(=O)c2c(nc(N3CCNCC3)n2Cc2nnc(-c3ccccc3)o2)n(C)c1=O [Example 107, 1,3-dimethyl-7-[(5-phenyl-1,3,4-oxadiazol-2-yl)methyl]-8-(piperazin-1-yl)-2,3,6,7-tetrahydro-1H-purine-2,6-dione] | 6.67
Cn1c(=O)c2c(nc(Cl)n2Cc2nnc(-c3cccc(F)c3)o2)n(C)c1=O [Example 91, 8-chloro-7-{[5-(3-fluorophenyl)-1,3,4-oxadiazol-2-yl]methyl}-1,3-dimethyl-2,3,6,7-tetrahydro-1H-purine-2,6-dione] | 5.67
Cn1c(=O)c2c(nc(Cl)n2Cc2nnc(-c3ccc(Cl)nc3)o2)n(C)c1=O [Example 95, 8-chloro-7-{[5-(6-chloropyridin-3-yl)-1,3,4-oxadiazol-2-yl]methyl}-1,3-dimethyl-2,3,6,7-tetrahydro-1H-purine-2,6-dione] | 5.86
COc1cc(-c2nnc(Cn3c(N4CCNC(C(F)(F)F)C4)nc4c3c(=O)n(C)c(=O)n4C)o2)ccc1C (stereo not drawn) [Example 129, 7-{[5-(3-methoxy-4-methylphenyl)-1,3,4-oxadiazol-2-yl]methyl}-1,3-dimethyl-8-[3-(trifluoromethyl)piperazin-1-yl]-2,3,6,7-tetrahydro-1H-purine-2,6-dione] | 6.04
Cn1c(=O)c2c(nc(Cl)n2Cc2nnc(-c3ccc(F)cc3)o2)n(C)c1=O [Example 90, 8-chloro-7-{[5-(4-fluorophenyl)-1,3,4-oxadiazol-2-yl]methyl}-1,3-dimethyl-2,3,6,7-tetrahydro-1H-purine-2,6-dione] | 5.36
Cn1c(=O)c2c(nc(Cl)n2Cc2cn(-c3ccc(Cl)c(Cl)c3)nn2)n(C)c1=O [Example 143, 8-chloro-7-{[1-(3,4-dichlorophenyl)-1H-1,2,3-triazol-4-yl]methyl}-1,3-dimethyl-2,3,6,7-tetrahydro-1H-purine-2,6-dione] | 4.85
Cc1ccc(-c2nnc(Cn3c(N4CCNCC4)nc4c3c(=O)n(C)c(=O)n4C)o2)cn1 [Example 125, 1,3-dimethyl-7-{[5-(6-methylpyridin-3-yl)-1,3,4-oxadiazol-2-yl]methyl}-8-(piperazin-1-yl)-2,3,6,7-tetrahydro-1H-purine-2,6-dione] | 6.67
COc1ccc(-c2nnc(Cn3c(Cl)nc4c3c(=O)n(C)c(=O)n4C)o2)cc1OC [Example 104, 8-chloro-7-{[5-(3,4-dimethoxyphenyl)-1,3,4-oxadiazol-2-yl]methyl}-1,3-dimethyl-2,3,6,7-tetrahydro-1H-purine-2,6-dione] | < 4.00
Cn1c(=O)c2c(nc(N3CCNCC3)n2Cc2nnc(-c3ccc(N4CCNCC4)nc3)o2)n(C)c1=O [Example 114, 1,3-dimethyl-8-(piperazin-1-yl)-7-({5-[6-(piperazin-1-yl)pyridin-3-yl]-1,3,4-oxadiazol-2-yl}methyl)-2,3,6,7-tetrahydro-1H-purine-2,6-dione] | 4.54
Cn1c(=O)c2c(nc(Cl)n2Cc2nnc(-c3ccc4cc[nH]c4c3)o2)n(C)c1=O [Example 101, 8-chloro-7-{[5-(1H-indol-6-yl)-1,3,4-oxadiazol-2-yl]methyl}-1,3-dimethyl-2,3,6,7-tetrahydro-1H-purine-2,6-dione] | 6.45
Cn1c(=O)c2c(nc(Cl)n2Cc2nnc(-c3ccc([N+](=O)[O-])cc3)o2)n(C)c1=O [Example 96, 8-chloro-1,3-dimethyl-7-{[5-(4-nitrophenyl)-1,3,4-oxadiazol-2-yl]methyl}-2,3,6,7-tetrahydro-1H-purine-2,6-dione] | 5.82
Cn1c(=O)c2c(nc(N3CCC(CNC(=O)OC(C)(C)C)CC3)n2Cc2nnc(-c3ccc(Cl)c(Cl)c3)o2)n(C)c1=O [Example 65, tert-butyl N-{[1-(7-{[5-(3,4-dichlorophenyl)-1,3,4-oxadiazol-2-yl]methyl}-1,3-dimethyl-2,6-dioxo-2,3,6,7-tetrahydro-1H-purin-8-yl)piperidin-4-yl]methyl}carbamate] | 7.47
Cc1cc(-c2nnc(Cn3c(N4CCNCC4)nc4c3c(=O)n(C)c(=O)n4C)o2)ccc1Cl [Example 116, 7-{[5-(4-chloro-3-methylphenyl)-1,3,4-oxadiazol-2-yl]methyl}-1,3-dimethyl-8-(piperazin-1-yl)-2,3,6,7-tetrahydro-1H-purine-2,6-dione] | 7.67
Cn1c(=O)c2c(nc(-n3ccnc3)n2Cc2nnc(-c3ccc(Cl)c(Cl)c3)o2)n(C)c1=O [Example 66, 7-{[5-(3,4-dichlorophenyl)-1,3,4-oxadiazol-2-yl]methyl}-8-(1H-imidazol-1-yl)-1,3-dimethyl-2,3,6,7-tetrahydro-1H-purine-2,6-dione] | 7.24
